Results taken from US20100112561A1, “FLUORESCENT NUCLEOSIDE ANALOGUES” (priority 2006, published 2010).

How the values were obtained:
[1] = target: T1, 2′-deoxyribonucleoside kinase from Drosophila melanogaster (DmdNK) (Drosophila melanogaster, UniProt Q9XZT6); assay: spectrophotometric coupled-enzyme kinase assay, DmdNK; format: biochemical; settings: wild type DmdNK, kcat/KM data FIG. 10A/11A, agrees with FACS FIG. 11B
T1 construct: made in house; host or cells: E. coli, pET-14b (Novagen)
T1 sequence (Q9XZT6 1-250): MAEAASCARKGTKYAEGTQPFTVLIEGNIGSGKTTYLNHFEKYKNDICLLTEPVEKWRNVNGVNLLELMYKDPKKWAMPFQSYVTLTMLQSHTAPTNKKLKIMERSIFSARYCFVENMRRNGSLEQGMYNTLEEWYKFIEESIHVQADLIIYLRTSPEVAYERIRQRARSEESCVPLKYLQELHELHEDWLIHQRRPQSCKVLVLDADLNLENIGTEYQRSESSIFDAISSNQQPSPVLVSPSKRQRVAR
Text: To investigate the kinetic properties of the above-described fNAs in vitro, a pET-based protein overexpression system was established for the production and purification of milligram quantities of individual dNKs. The genes for human 2′-deoxycytidine kinase (dCK) and fruitfly dNK (DmdNK), as well as the thymidine kinase from the bacterium Thermotoga maritime (TmTK) were subcloned into pET-14b (Novagen), an IPTG-inducible protein overexpression system that also introduces a poly-His tag at the target protein's amino terminus. Following protein overexpression, the tag enables one-step purification of the corresponding proteins on Ni-affinity resin, yielding enzyme of >95% purity as determined by SDS-PAGE. This protein overexpression system was successfully applied for the listed wild type kinases above, as well as for isolating engineered enzymes.
A quantitative measurement of individual enzymes' substrate specificity is possible via the determination of the kinetic parameters KM and kcat. Consistent with the literature, each kinase will be described by its relative activity for a fNA in comparison to its corresponding NA and thymidine: kcat(fNA)/kcat(NA), as well as by its relative catalytic efficiency: kcat/KM(fNA)/kcat/KM(NA). […]
(§1) Experimentally, the kinase-catalyzed phosphotransfer reaction was monitored at 37° C. via a spectrophotometric, couple-enzyme assay (as described in Munch-Petersen, B., Knecht, W., Lenz, C., Sondergaard, L. and Piskur, J. (2000) functional expression of a multisubstrate deoxyribonucleoside kinase from Drosophila melanogaster and its C-terminal deletion mutants. J Bio chem, 275, 6673-6679; Schelling, P., Folkers, G. and Schapozza, L. (2001) A spectrophotometric assay for quantitative determination of kcat of herpes simplex virus type 1 thymidine kinase substrates. Anal Biochem, 295, 82-87, which are hereby incorporated by reference herein). […] The consumption of NADH can be monitored spectrophotometrically at 340 nm. […]

[2] = target: T2, thymidine kinase from Thermotoga maritima (TmTK) (Thermotoga maritima, UniProt Q9WYN2); assay: kinetic experiments with type-II kinases; format: biochemical
T2 construct: made in house; host or cells: E. coli, pET-14b (Novagen)
T2 sequence (Q9WYN2 whole entry): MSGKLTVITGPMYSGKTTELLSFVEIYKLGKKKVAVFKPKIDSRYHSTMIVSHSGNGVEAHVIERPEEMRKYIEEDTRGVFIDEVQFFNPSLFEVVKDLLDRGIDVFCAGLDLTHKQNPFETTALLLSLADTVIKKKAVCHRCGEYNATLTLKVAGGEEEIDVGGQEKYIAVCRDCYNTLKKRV
Text: (§2) To investigate the kinetic properties of the above-described fNAs in vitro, a pET-based protein overexpression system was established for the production and purification of milligram quantities of individual dNKs. The genes for human 2′-deoxycytidine kinase (dCK) and fruitfly dNK (DmdNK), as well as the thymidine kinase from the bacterium Thermotoga maritime (TmTK) were subcloned into pET-14b (Novagen), an IPTG-inducible protein overexpression system that also introduces a poly-His tag at the target protein's amino terminus. […]
as §1

[3] = tested on: E. coli expressing DmdNK from pDIM, pBAD or pET vectors; assay: flow cytometry (FACS) of E. coli overexpressing DmdNK; format: cell-based; settings: pDIM vector in E. coli KY895, FIG. 9
Procedure: In a typical flow cytometry experiment, bacterial cultures are grown to mid-log phase and protein expression is induced for 4 h, followed by the addition of the fN or fNA to the culture broth. Cells are incubated for another 2 h prior to centrifugation and three wash-cycles with PBS buffer to reduce the fluorescence background. Cultures are then analyzed on a Becton Dickinson FACSVantage SE, equipped with a UV laser.
Several experiments were conducted to validate the design for a FACS-based high-throughput screening system for engineered dNKs. A first set of experiments addressed three main questions: a) what is an appropriate host/expression system for kinases in conjunction with fNAs (FIG. 9), b) are the fluorescent properties of the above-described fNAs sufficient for FACS, and c) what is the dynamic range of this screening system? […] In contrast, both the pET and pBAD system yield populations with a more significant portion of “positives”, cells with 10 to 20-fold higher fluorescence than background.

[4] = target: T3, human 2′-deoxycytidine kinase (dCK) (Homo sapiens, UniProt P27707); assay: spectrophotometric coupled-enzyme kinase assay, dCK; format: biochemical; settings: FIG. 10A
T3 construct: made in house; host or cells: E. coli, pET-14b (Novagen)
T3 sequence (P27707 whole entry): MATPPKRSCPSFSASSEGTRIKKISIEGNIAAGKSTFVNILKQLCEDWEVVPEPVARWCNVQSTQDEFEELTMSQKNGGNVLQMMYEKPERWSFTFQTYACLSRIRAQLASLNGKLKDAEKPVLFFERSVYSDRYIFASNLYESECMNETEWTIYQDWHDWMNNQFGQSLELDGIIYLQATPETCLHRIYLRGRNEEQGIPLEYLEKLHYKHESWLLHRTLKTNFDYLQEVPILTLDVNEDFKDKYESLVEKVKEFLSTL
Text: as §2
A quantitative measurement of individual enzymes' substrate specificity is possible via the determination of the kinetic parameters KM and kcat. […]
as §1

[5] = tested on: E. coli KY895 with pDIM-tDmdNK and TOP10 with pBAD-tDmdNK; assay: fNA accumulation by fluorescence microscopy, bacteria expressing DmdNK; format: cell-based; settings: plasmid-encoded exogenous DmdNK, both strains, FIG. 8
Text: FIG. 8 illustrates the fluorescence microscopy of E. coli KY895 with pDIM-tDmdNK (left) and TOP10 with pBAD-tDmdNK (right) in the presence of 1 (100× magnification; excitation: Hg-lamp at 325 nm). Noticeable in the two images of FIG. 8 is the highly variable fluorescence intensity in the E. coli KY895/pDIM sample, caused by disproportionate expression levels of the lac-promoter system. On the contrary, the arabinose-controlled pBAD system in E. coli TOP10 facilitates steadier kinase expression levels, resulting in a more uniform fluorescence signal.

[6] = tested on: E. coli TOP10 and E. coli KY895; assay: fNA uptake by fluorescence microscopy, strains without exogenous kinase; format: cell-based; settings: both strains, no exogenous type-I kinase
Procedure: To validate the accumulation of the fluorescent nucleotides inside bacterial cells, a series of fNA-uptake experiments was conducted in two E. coli strains. The E. coli TOP10 (Invitrogen) carries a native type-II thymidine kinase while E. coli KY895 is a thymidine kinase-deficient laboratory strain.

| Compound | substrate activity / phosphorylation by DmdNK [1] | phosphorylation by type-II kinases [2] | fluorescent cell population [3] | substrate activity / phosphorylation by dCK [4] | accumulation of fluorescent probe inside cells [5] | fluorescence signal in cells [6] |
| --- | --- | --- | --- | --- | --- | --- |
| Cc1cc2cn(C3CCC(CO)O3)c(=O)nc2[nH]1 (centres unmarked) [compound 25, 3-(5-(hydroxymethyl)-tetrahydrofuran-2-yl)-6-methyl-3H-pyrrolo[2,3-d]pyrimidin-2(7H)-one] | no detectable activity |  |  |  |  |  |
| Cc1cc2cn([C@H]3C[C@H](O)[C@@H](CO)O3)c(=O)nc2o1 [compound 1, 6-methyl-3-(β-D-2′-deoxyribofuranosyl)furano-[2,3-d]pyrimidin-2-one] | strong activity and good substrate and good | no detectable phosphorylation | small subpopulation with fluorescence above background | no activity | accumulation of the fluorescent probe inside both strains | no fluorescence signal beyond the cellular autofluorescence |
| Cc1cc2cn(C3CC(N=[N+]=[N-])C(CO)O3)c(=O)nc2o1 (centres unmarked) [compound 16, 3-(4-azido-5-(hydroxymethyl)-tetrahydrofuran-2-yl)-6-methylfuro[2,3-d]pyrimidin-2(3H)-one] | only background phosphorylation |  |  |  |  |  |
